For one experiment, the system named is Uromyces phaseoli. As to the kind of experiment: Spore germination test. The experiment is classed as cell-based. The following applies: UP, 48 hours. In a few lines:
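Compound was delivered in acetone into water agar at final 40, 10, 2.5 and 1 ppm. Alternaria solani and Botrytis cinerea spores were applied as sterile-water suspensions, while Erysiphe polygoni and Uromyces phaseoli spores were brushed on from infected leaves. After 48 h at 24° C., percentage germination was converted to a rating.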

A further experiment concerns Pyricularia oryzae. The experiment is classed as cell-based. The following applies: PO, 48 hours.

The structures appear in SMILES notation. Read-outs that look alike come from different tables or passages of the source.

Regarding `CC(=O)c1ccccc1Oc1nsnc(Cl)c1=O` [Compound 49, 3-(2-acetylphenoxy)-5-chloro-4H--1,2,6-thiadiazin-4-one], the “Spore Germination Rating” value with Uromyces phaseoli (1.0 ppm) is given as 4 (80-100); in the experiment on Uromyces phaseoli (2.5 ppm) it was 1 (10-40); in the experiment with Uromyces phaseoli (10 ppm), 0 (0-10); with Uromyces phaseoli (40 ppm) it was 0 (0-10); in the experiment with Pyricularia oryzae (1.0 ppm), 2 (40-60); in the experiment on Pyricularia oryzae (2.5 ppm), 1 (10-40). In addition, the “Spore Germination Rating” value with Pyricularia oryzae (10 ppm) and in the experiment on Pyricularia oryzae (40 ppm) was 0 (0-10) each time.
On to `O=C(O)c1ccc(Oc2nsnc(Cl)c2=O)cc1` [Compound 50, 3-(4-carboxyphenoxy)-5-chloro-4H--1,2,6-thiadiazin-4-one], for which the “Spore Germination Rating” value in the experiment with Uromyces phaseoli (1.0 ppm) is given as 4 (80-100); in the experiment on Uromyces phaseoli (2.5 ppm) it was 4 (80-100); in the experiment with Uromyces phaseoli (10 ppm) it was 2 (40-60); in the experiment on Uromyces phaseoli (40 ppm) it was 0 (0-10); in the experiment on Pyricularia oryzae (1.0 ppm), 4 (80-100); in the experiment with Pyricularia oryzae (2.5 ppm), 4 (80-100). Besides, the “Spore Germination Rating” value is on record as 4 (80-100) in the experiment with Pyricularia oryzae (10 ppm) and 0 (0-10) with Pyricularia oryzae (40 ppm).
`COc1ccc(Cl)c(Oc2nsnc(Cl)c2=O)c1` [Compound 51, 3-chloro-5-[(2-chloro-5-methoxy)phenoxy]-4H--1,2,6-thiadiazin-4-one]: the “Spore Germination Rating” value is given as 0 (0-10) with Uromyces phaseoli (1.0 ppm); 0 (0-10) in the experiment on Uromyces phaseoli (2.5 ppm); 0 (0-10) with Uromyces phaseoli (10 ppm); 0 (0-10) in the experiment on Uromyces phaseoli (40 ppm); 3 (60-80) in the experiment on Pyricularia oryzae (1.0 ppm); 0 (0-10) with Pyricularia oryzae (2.5 ppm). In addition, the “Spore Germination Rating” value in the experiment with Pyricularia oryzae (10 ppm) and in the experiment on Pyricularia oryzae (40 ppm) was 0 (0-10) each time.
Regarding `COc1cc(Cl)cc(Oc2nsnc(Cl)c2=O)c1` [Compound 52, 3-chloro-5-[(3-chloro-5-methoxy)phenoxy]-4H--1,2,6-thiadiazin-4-one], the “Spore Germination Rating” value in the experiment with Uromyces phaseoli (1.0 ppm) is 2 (40-60); in the experiment on Uromyces phaseoli (2.5 ppm), 0 (0-10); in the experiment with Uromyces phaseoli (10 ppm) it was 0 (0-10); in the experiment with Uromyces phaseoli (40 ppm), 0 (0-10); in the experiment with Pyricularia oryzae (1.0 ppm) it was 4 (80-100); in the experiment on Pyricularia oryzae (2.5 ppm) it was 0 (0-10). For the same compound, the “Spore Germination Rating” value in the experiment on Pyricularia oryzae (10 ppm) and in the experiment on Pyricularia oryzae (40 ppm) was 0 (0-10) each time.
In the case of `O=c1c(Cl)nsnc1Oc1ccc([N+](=O)[O-])cc1Cl` [Compound 53, 3-chloro-5-(2-chloro-4-nitrophenoxy)-4H--1,2,6-thiadiazin-4-one], the “Spore Germination Rating” value was 1 (10-40) in the experiment with Uromyces phaseoli (1.0 ppm); 0 (0-10) in the experiment on Uromyces phaseoli (2.5 ppm); 0 (0-10) in the experiment on Uromyces phaseoli (10 ppm); 0 (0-10) in the experiment with Uromyces phaseoli (40 ppm); 2 (40-60) in the experiment on Pyricularia oryzae (1.0 ppm); 0 (0-10) with Pyricularia oryzae (2.5 ppm). Also, the “Spore Germination Rating” value in the experiment on Pyricularia oryzae (10 ppm) and with Pyricularia oryzae (40 ppm) was 0 (0-10) each time.
On to `Cc1cc(Oc2nsnc(Cl)c2=O)ccc1Cl` [Compound 54, 3-chloro-5-(4-chloro-3-methylphenoxy)-4H--1,2,6-thiadiazin-4-one], for which the “Spore Germination Rating” value in the experiment with Uromyces phaseoli (1.0 ppm), with Uromyces phaseoli (2.5 ppm), in the experiment with Uromyces phaseoli (10 ppm), in the experiment on Uromyces phaseoli (40 ppm), with Pyricularia oryzae (1.0 ppm) and with Pyricularia oryzae (2.5 ppm) was 0 (0-10) throughout. Also, the “Spore Germination Rating” value in the experiment on Pyricularia oryzae (10 ppm) and with Pyricularia oryzae (40 ppm) was 0 (0-10) in each case.
In the case of `Cc1cc(Cl)ccc1Oc1nsnc(Cl)c1=O` [Compound 55, 3-chloro-5-(4-chloro-2-methylphenoxy)-4H--1,2,6-thiadiazin-4-one], the “Spore Germination Rating” value was 0 (0-10) in the experiment on Uromyces phaseoli (1.0 ppm); 0 (0-10) in the experiment on Uromyces phaseoli (2.5 ppm); 0 (0-10) in the experiment with Uromyces phaseoli (10 ppm); 0 (0-10) in the experiment with Uromyces phaseoli (40 ppm); 1 (10-40) with Pyricularia oryzae (1.0 ppm); 0 (0-10) in the experiment with Pyricularia oryzae (2.5 ppm). In addition, the “Spore Germination Rating” value with Pyricularia oryzae (10 ppm) and with Pyricularia oryzae (40 ppm) was 0 (0-10) in each case.
Regarding `Cc1ccc(Cl)c(Oc2nsnc(Cl)c2=O)c1` [Compound 56, 3-chloro-5-[(2-chloro-5-methyl)phenoxy]-4H--1,2,6-thiadiazin-4-one], the “Spore Germination Rating” value in the experiment on Uromyces phaseoli (1.0 ppm) is 1 (10-40); in the experiment with Uromyces phaseoli (2.5 ppm), 0 (0-10); in the experiment with Uromyces phaseoli (10 ppm) it was 0 (0-10); with Uromyces phaseoli (40 ppm) it was 0 (0-10); with Pyricularia oryzae (1.0 ppm), 0 (0-10); in the experiment with Pyricularia oryzae (2.5 ppm), 0 (0-10). The “Spore Germination Rating” value with Pyricularia oryzae (10 ppm) and with Pyricularia oryzae (40 ppm) was 0 (0-10) throughout.
Consider `Cc1ccc(Oc2nsnc(Cl)c2=O)c(Br)c1` [Compound 57, 3-[(2-bromo-4-methyl)-phenoxy]-5-chloro-4H--1,2,6-thiadiazin-4-one], for which the “Spore Germination Rating” value is on record as 0 (0-10) with Uromyces phaseoli (1.0 ppm); 0 (0-10) with Uromyces phaseoli (2.5 ppm); 0 (0-10) in the experiment with Uromyces phaseoli (10 ppm); 0 (0-10) in the experiment on Uromyces phaseoli (40 ppm); 0 (0-10) in the experiment on Pyricularia oryzae (1.0 ppm); 2 (40-60) in the experiment with Pyricularia oryzae (2.5 ppm). Besides, the “Spore Germination Rating” value in the experiment with Pyricularia oryzae (10 ppm) and in the experiment with Pyricularia oryzae (40 ppm) was 0 (0-10) each time.
`Cc1cc(Cl)c(Oc2nsnc(Cl)c2=O)cc1C` [Compound 58, 3-chloro-5-[(2-chloro-4,5-dimethyl)phenoxy]-4H--1,2,6-thiadiazin-4-one]: the “Spore Germination Rating” value in the experiment with Uromyces phaseoli (1.0 ppm) is 2 (40-60); in the experiment with Uromyces phaseoli (2.5 ppm) it was 0 (0-10); in the experiment on Uromyces phaseoli (10 ppm), 0 (0-10); in the experiment on Uromyces phaseoli (40 ppm), 0 (0-10); in the experiment on Pyricularia oryzae (1.0 ppm), 4 (80-100); in the experiment on Pyricularia oryzae (2.5 ppm), 0 (0-10). In addition, the “Spore Germination Rating” value in the experiment with Pyricularia oryzae (10 ppm) and in the experiment on Pyricularia oryzae (40 ppm) was 0 (0-10) throughout.
On to `Cc1cc(Oc2nsnc(Cl)c2=O)cc(C)c1Cl` [Compound 59, 3-chloro-5-[(4-chloro-3,5-dimethyl)phenoxy]-4H--1,2,6-thiadiazin-4-one], for which the “Spore Germination Rating” value in the experiment on Uromyces phaseoli (1.0 ppm) is given as 2 (40-60); with Uromyces phaseoli (2.5 ppm) it was 2 (40-60); in the experiment with Uromyces phaseoli (10 ppm) it was 0 (0-10); with Uromyces phaseoli (40 ppm), 0 (0-10); in the experiment with Pyricularia oryzae (1.0 ppm), 0 (0-10); with Pyricularia oryzae (2.5 ppm), 0 (0-10). Besides, the “Spore Germination Rating” value with Pyricularia oryzae (10 ppm) and in the experiment on Pyricularia oryzae (40 ppm) was 0 (0-10) throughout.
`Cc1cc(Oc2nsnc(Cl)c2=O)cc(C)c1Br` [Compound 60, 3-[(4-bromo-3,5-dimethyl)-phenoxy]-5-chloro-4H--1,2,6-thiadiazin-4-one]: the “Spore Germination Rating” value in the experiment on Uromyces phaseoli (1.0 ppm), in the experiment with Uromyces phaseoli (2.5 ppm), with Uromyces phaseoli (10 ppm), with Uromyces phaseoli (40 ppm), in the experiment on Pyricularia oryzae (1.0 ppm) and in the experiment with Pyricularia oryzae (2.5 ppm) was 0 (0-10) each time. In addition, the “Spore Germination Rating” value in the experiment on Pyricularia oryzae (10 ppm) and with Pyricularia oryzae (40 ppm) was 0 (0-10) in each case.
Turning to `COc1cc(Oc2nsnc(Cl)c2=O)cc(OC)c1C(C)=O` [Compound 61, 3-[(4-acetyl-3,5-dimethoxy)-phenoxy]-5-chloro-4H--1,2,6-thiadiazin-4-one], the “Spore Germination Rating” value in the experiment with Uromyces phaseoli (1.0 ppm) is given as 2 (40-60); in the experiment on Uromyces phaseoli (2.5 ppm) it was 1 (10-40); in the experiment with Uromyces phaseoli (10 ppm), 2 (40-60); in the experiment with Uromyces phaseoli (40 ppm), 0 (0-10); in the experiment with Pyricularia oryzae (1.0 ppm), 4 (80-100); in the experiment with Pyricularia oryzae (2.5 ppm), 4 (80-100). Also, the figures for the “Spore Germination Rating” value with Pyricularia oryzae (10 ppm) and with Pyricularia oryzae (40 ppm) were 2 (40-60) and 1 (10-40), respectively.

Values taken from US4450269A, “Mono-5-substituted-3-chloro-4H-1,2,6-thiadiazin-4-one antifungal agents” (FMC Corporation, priority 1980, dated 1984).
